Test results reported in patent publication US9371331B2, “Modulators of methyl modifying enzymes, compositions and uses thereof” (Constellation Pharmaceuticals, Inc., priority 2012, dated 2016).
Where two headings read alike, the source gives them in different places.

Legend:
EZH2 (rPRC2) = EZH2 (rPRC2) (Homo sapiens, UniProt Q15910); assay: EZH2 assay: rPRC2, biotinylated oligonucleosomes, 3H SAM methyl transfer (FlashPlate scintillation); assay type: biochemical; conditions: biotinylated oligonucleosome substrate
EZH2 (rPRC2), sequence (Q15910 whole entry): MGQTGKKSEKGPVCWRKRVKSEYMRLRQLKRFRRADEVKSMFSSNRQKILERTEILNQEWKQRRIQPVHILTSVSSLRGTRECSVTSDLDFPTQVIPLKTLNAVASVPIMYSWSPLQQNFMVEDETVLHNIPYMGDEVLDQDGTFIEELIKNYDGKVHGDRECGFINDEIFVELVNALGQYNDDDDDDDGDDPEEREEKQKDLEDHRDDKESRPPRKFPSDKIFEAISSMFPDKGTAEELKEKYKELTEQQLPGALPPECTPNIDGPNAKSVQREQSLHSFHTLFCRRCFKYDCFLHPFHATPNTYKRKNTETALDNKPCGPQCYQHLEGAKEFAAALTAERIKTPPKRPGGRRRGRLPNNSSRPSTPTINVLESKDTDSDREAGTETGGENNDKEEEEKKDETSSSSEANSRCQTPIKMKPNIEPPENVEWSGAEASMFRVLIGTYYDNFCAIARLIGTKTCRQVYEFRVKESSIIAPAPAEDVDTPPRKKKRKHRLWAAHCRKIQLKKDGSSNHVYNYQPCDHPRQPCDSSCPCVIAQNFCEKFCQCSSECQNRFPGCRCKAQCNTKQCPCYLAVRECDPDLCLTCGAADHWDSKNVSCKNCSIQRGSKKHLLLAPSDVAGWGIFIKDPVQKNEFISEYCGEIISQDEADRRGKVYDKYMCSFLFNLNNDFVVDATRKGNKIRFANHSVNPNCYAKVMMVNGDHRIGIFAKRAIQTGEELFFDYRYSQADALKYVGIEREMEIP
EZH2 (rPRC2), sequence (O75530 whole entry partner): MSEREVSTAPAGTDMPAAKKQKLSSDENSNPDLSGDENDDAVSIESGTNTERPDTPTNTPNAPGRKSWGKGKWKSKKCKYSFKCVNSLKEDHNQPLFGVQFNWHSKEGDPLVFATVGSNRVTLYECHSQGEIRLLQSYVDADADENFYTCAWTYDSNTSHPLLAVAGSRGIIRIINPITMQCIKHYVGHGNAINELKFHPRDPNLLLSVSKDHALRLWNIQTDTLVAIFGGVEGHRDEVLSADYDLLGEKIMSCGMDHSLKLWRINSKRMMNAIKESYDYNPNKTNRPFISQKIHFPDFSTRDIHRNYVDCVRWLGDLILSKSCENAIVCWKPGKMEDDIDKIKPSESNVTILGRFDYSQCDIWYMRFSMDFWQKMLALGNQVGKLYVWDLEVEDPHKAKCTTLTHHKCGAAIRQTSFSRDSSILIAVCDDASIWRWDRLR
EZH2 (rPRC2), sequence (Q15022 whole entry partner): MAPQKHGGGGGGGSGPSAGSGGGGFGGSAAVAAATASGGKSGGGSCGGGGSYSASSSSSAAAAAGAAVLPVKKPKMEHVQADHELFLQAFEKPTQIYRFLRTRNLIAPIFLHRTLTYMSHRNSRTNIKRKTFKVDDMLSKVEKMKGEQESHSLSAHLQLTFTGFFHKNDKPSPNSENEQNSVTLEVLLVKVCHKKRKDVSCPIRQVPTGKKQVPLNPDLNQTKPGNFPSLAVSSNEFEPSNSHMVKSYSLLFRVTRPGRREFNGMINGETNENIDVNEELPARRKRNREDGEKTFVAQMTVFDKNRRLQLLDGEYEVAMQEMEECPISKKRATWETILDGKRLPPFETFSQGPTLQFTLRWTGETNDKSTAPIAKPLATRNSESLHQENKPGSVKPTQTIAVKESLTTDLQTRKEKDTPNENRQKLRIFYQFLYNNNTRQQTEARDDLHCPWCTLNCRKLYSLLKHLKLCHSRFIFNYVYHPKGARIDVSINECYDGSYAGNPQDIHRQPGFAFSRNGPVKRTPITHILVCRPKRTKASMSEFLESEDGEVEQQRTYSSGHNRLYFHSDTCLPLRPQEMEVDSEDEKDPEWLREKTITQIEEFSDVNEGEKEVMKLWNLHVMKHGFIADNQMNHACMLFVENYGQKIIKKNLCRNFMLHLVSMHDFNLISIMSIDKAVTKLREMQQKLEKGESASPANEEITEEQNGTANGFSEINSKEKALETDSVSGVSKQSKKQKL

Y641N EZH2 = Y641N EZH2 (Homo sapiens, UniProt Q15910, Y641N); assay: Y641N EZH2 assay: as EZH2 assay, with reconstituted H3K27Me2 oligonucleosomes as substrate; assay type: biochemical
Y641N EZH2, sequence (Q15910 whole entry Y641N): as the sequence (Q15910 whole entry) above, with Y641N counted along it
Y641N EZH2, sequence (O75530 whole entry partner): as the sequence (O75530 whole entry partner) above
Y641N EZH2, sequence (Q15022 whole entry partner): as the sequence (Q15022 whole entry partner) above

[1] = system: H3K27me3 mark in HeLa cells; assay: H3K27me3 Alpha Hela Assay (AlphaLISA); assay type: cell-based; conditions: 72 hrs; for EC50: Homo sapiens, read-out: H3K27me3_Alpha_HeLa_ (EC50)
Procedure: H3K27me3 Alpha Hela Assay (AlphaLISA).
Ten different doses of each test compound (in a series of 3-fold dilutions) were plated in duplicate 384-well tissue culture treated plates (Catalog #781080; Greiner Bio One; Monroe, N.C.). Hela cells grown in culture were trypsinized and counted using a Countess® cell counter (Catalog #C10281; Life Technologies, Grand Island, N.Y.). Cell were diluted to 67,000 cells per mL in 10% DMEM (Catalog #10569-010 Life Technologies. Grand Island, N.Y.) and 15 μL (1,000 cells) were plated into each well using the Biotek MicroFlo™ Select Dispenser (BioTek Instruments. Inc. Vermont, USA),) of the 384-well plate. Plates were incubated at 37° C./5% CO2 for 72 hrs. One of the duplicate plates was processed for HeLa assay and the other for viability.
To the plate processed for AlphaLISA was added 5 μL per well Cell-Histone Lysis buffer (1×) (Catalog #AL009F1 Perkin Elmer; Waltham, Mass.) and the plate was incubated at RT for 30 minutes on a plate shaker with low speed (Model#4625-Q Thermo Scientific; Waltham, Mass.). Then, 10 µL per well Histone Extraction buffer (catalog #AL009F2: Perkin Elmer; Waltham, Mass.) was added and the plate further incubated at RT for 20 min on plate shaker with low speed. To each well was then added 10 μL per well of a 5× mix of anti-K27me3 acceptor beads plus Biotinylated anti-Histone H3 (C-ter) Antibody (diluted to 3 nM final) (Catalog #AL118 Perkin Elmer; Waltham, Mass.). Dilution of the acceptor beads and then anti-Histone H3 was with 1× Histone Detection buffer (Catalog #AL009F3 Perkin Elmer; Waltham, Mass.) which was produced diluted from the 10× stock provided. The plate was sealed with an aluminum plate sealer and incubated at 23° C. for 60 min. We then added 10 μL 5× solution of Streptavidin Donor beads (Catalog #6760002 Perkin Elmer; Waltham, Mass.) (20 μg/mL final in 1× Histone Detection Buffer), sealed the plate with Aluminum plate sealer and incubated at 23° C. for 30 min. The plates were then read using an EnVision-Alpha Reader (model #2104 Perkin Elmer: Waltham, Mass.).
Data from both assays was analyzed using Assay Assistant (Constellation Pharmaceuticals In-house product) and Activity Base (IDBS Ltd. Surrey, UK) template. Data files were imported to Assay Assistant and assay conditions were specified. A unique Analysis ID was created and the data files exported to Activity Base. An analysis template was created on Activity Base to measure dose-dependent inhibition of H3K27me3 mark and cell viability respectively. Readout of DMSO wells were used to normalize the data. Resulting curves were fitted using Activity base software Model 205 (IDBS Ltd, Surrey, UK). The data was checked for quality, validated and integrated in excel format using SARview (IDBS Ltd, Surrey, UK).

[2] = wild-type EZH2 (rPRC2), read-out: EZH2 IC50
[3] = Y641N mutant EZH2, H3K27Me2 oligonucleosome substrate, read-out: Y641N EZH2 IC50
[4] = EZH2 IC50, wild-type EZH2 (rPRC2)
[5] = Y641N EZH2 IC50, Y641N mutant EZH2, H3K27Me2 oligonucleosome substrate

SMILES | IC50 (EZH2 (rPRC2); [2]) [nM] | IC50 (Y641N EZH2; [3]) [nM] | EC50 [1] [nM] | IC50 (EZH2 (rPRC2); [4]) [nM] | IC50 (Y641N EZH2; [5]) [nM] | IC50 (EZH2 (rPRC2); read-out: EZH2 IC50, wild-type EZH2 (rPRC2)) [nM] | IC50 (Y641N EZH2; read-out: Y641N EZH2 IC50, Y641N mutant EZH2, H3K27Me2 oligonucleosome substrate) [nM] | H3K27me3_Alpha_HeLa_ (EC50) [1]
COc1cc(C)[nH]c(=O)c1CNC(=O)c1c(C)n(-c2cccc3ncccc23)c2ccccc12 [Compound 330, N-((4-methoxy-6-methyl-2-oxo-1,2-dihydropyridin-3-yl)methyl)-2-methyl-1-(quinolin-5-yl)-1H-indole-3-carboxamide] | < 100 | < 100 | 400 to 2000 |  |  |  |  | 
COc1cc(C)[nH]c(=O)c1CNC(=O)c1c(C)n(C(C)C2CN(S(C)(=O)=O)C2)c2ccccc12 (racemic) [Compound 354, (±)-N-((4-methoxy-6-methyl-2-oxo-1,2-dihydropyridin-3-yl)methyl)-2-methyl-1-(1-(1-(methylsulfonyl)azetidin-3-yl)ethyl)-1H-indole-3-carboxamide] |  |  | 400 to 2000 | < 100 | < 100 |  |  | 
COc1cc(C)[nH]c(=O)c1CNC(=O)c1c(C)n(C(C)C2CCOCC2)c2cc(-c3ccccc3)ccc12 (single isomer, unassigned) [Compound 374, (R or S)—N-((4-methoxy-6-methyl-2-oxo-1,2-dihydropyridin-3-yl)methyl)-2-methyl-6-phenyl-1-(1-(tetrahydro-2H-pyran-4-yl)ethyl)-1H-indole-3-carboxamide] |  |  | < 400 | < 100 | < 100 |  |  | 
COc1cc(C)[nH]c(=O)c1CNC(=O)c1c(C)n(C(C)C2CCN(c3ncccn3)CC2)c2ccccc12 (single isomer, unassigned) [Compound 361, (R or S)—N-((4-methoxy-6-methyl-2-oxo-1,2-dihydropyridin-3-yl)methyl)-2-methyl-1-(1-1-(pyrimidin-2-yl)piperidin-4-yl)ethyl)-1H-indole-3-carboxamide] |  |  | < 400 | < 100 | < 100 |  |  | 
Cc1cc(C)c(CNC(=O)c2c(C)n(C(C)C3CCN(C4CN(C)C4)CC3)c3ccccc23)c(=O)[nH]1 (single isomer, unassigned) [Compound 377, (R or S)-N-((4,6-dimethyl-2-oxo-1,2-dihydropyridin-3-yl)methyl)-2-methyl-1(1-(1-(1-methylazetidin-3-yl)piperidin-4-yl)ethyl)-1 H-indole-3-carboxamide] |  |  | 400 to 2000 | < 100 | < 100 |  |  | 
Cc1cc(C)c(CNC(=O)c2c(C)n(C(C)C3CC3)c3ncccc23)c(=O)[nH]1 (single isomer, unassigned) [Compound 253, (R or S)-(±)-1-(1-cyclopropylethyl)-N-((4,6-dimethyl-2-oxo-1,2-dihydropyridin-3-yl)methyl)-2-methyl-1H-pyrrolo[2,3-b]pyridine-3-carboxamide] |  |  | < 400 |  |  | < 100 | 100 to 1000 | 
Cc1cc(C)c(CNC(=O)c2c(C)n(C(C)C3CCN(CC(C)(C)O)CC3)c3ccccc23)c(=O)[nH]1 (single isomer, unassigned) [Compound 369, (R or S)-N-((4,6-dimethyl-2-oxo-1,2-dihydropyridin-3-yl)methyl)-1-(1-(1-(2-hydroxy-2-methylpropyl)piperidin-4-yl)ethyl)-2-methyl-1H-indole-3-carboxamide] |  |  | < 400 | < 100 | < 100 |  |  | 
COc1cc(C)[nH]c(=O)c1CNC(=O)c1c(C)n(C(C)C2CCN(C(C)C)CC2)c2ccccc12 (single isomer, unassigned) [Compound 358, (R or S)-1-(1-(1-isopropylpiperidin-4-yl)ethyl)-N-((4-methoxy-6-methyl-2-oxo-1,2-dihydropyridin-3-yl)methyl)-2-methyl-1H-indole-3-carboxamide] |  |  | 400 to 2000 | < 100 | < 100 |  |  | 
COc1cc(C)[nH]c(=O)c1CNC(=O)c1c(C)n(C(C)C2CCOCC2)c2cc(Cl)ccc12 (single isomer, unassigned) [Compound 314, (R or S)-6-chloro-N-((4-methoxy-6-methyl-2-oxo-1,2-dihydropridin-3-1)methyl)-2-methyl-1-(1-(tetrahydro-2H-pyran-4-yl)ethyl)-1H-indole-3-carboxamide] |  |  | < 400 | < 100 | < 100 |  |  | 
COc1cc(C)[nH]c(=O)c1CNC(=O)c1c(C)n(C(C)C2CCN(CC(C)(C)O)CC2)c2ccccc12 (single isomer, unassigned) [Compound 352, (R or S)-1-(1-(1-(2-hydroxy-2-methylpropyl)piperidin-4-yl)ethyl)-N-((4-methoxy-6-methyl-2-oxo-1,2-dihydropyridin-3-yl)methyl)-2-methyl-1H-indole-3-carboxamide] |  |  | 400 to 2000 | < 100 | < 100 |  |  | 
CCN1CCC(C(C)n2c(C)c(C(=O)NCc3c(OC)cc(C)[nH]c3=O)c3ccccc32)CC1 (single isomer, unassigned) [Compound 360, (R or S)-1-(1-(1-ethylpiperidin-4-yl)ethyl)-N-((4-methoxy-6-methyl-2-oxo-1,2-dihydropyridin-3-yl)methyl)-2-methyl-1 H-indole-3carboxamide] |  |  | 2000 to 10000 | < 100 | < 100 |  |  | 
COc1cc(C)[nH]c(=O)c1CNC(=O)c1c(C)n(C(C)C2CCN(CCO)CC2)c2ccccc12 (single isomer, unassigned) [Compound 347, (R or S)-1-(1-(1-(2-hydroxyethyl)piperidin-4-yl)ethyl)-N-((4-methoxy-6-methyl-2-oxo-1,2-dihydropyridin-3-yl)methyl)-2-methyl-1H-indole-3-carboxamide] |  |  | 400 to 2000 | < 100 | < 100 |  |  | 
CCC(C)n1c(C)c(C(=O)NCc2c(OC)cc(C)[nH]c2=O)c2ccc(-c3ccc(N4CCNCC4)nc3)cc21 (racemic) [Compound 349, (±)-1-(sec-butyl)-N-((4-methoxy-6-methyl-2-oxo-1,2-dihydropyridin-3-yl)methyl)-2-methyl-6-(6-(piperazin-1-yl)pyridine-3-yl)-1H-indole-3-carboxamide] |  |  | 2000 to 10000 | < 100 | < 100 |  |  | 
CCOC(=O)CN1CCC(C(C)n2c(C)c(C(=O)NCc3c(OC)cc(C)[nH]c3=O)c3ccccc32)CC1 (single isomer, unassigned) [Compound 363, (R or S)-ethyl 2-(4-(1-(3-(((4-methoxy-6-methyl-2-oxo-1,2-dihydropyridin-3-yl)methyl)carbamoyl)-2-methyl-1 H-indol-1-yl)ethyl)piperidin-1-yl)acetate] |  |  | < 400 | < 100 | < 100 |  |  | 
COc1cc(C)[nH]c(=O)c1CNC(=O)c1c(C)n(C(C)C2CCNCC2)c2ncncc12 (racemic) [Compound 333, (±)-N-((4-methoxy-6-methyl-2-oxo-1,2-dihydropyridin-3-yl)methyl)-6-methyl-7-(1-(piperidin-4-yl)ethyl)-7H-pyrrolo[2,3-d]pyrimidine-5-carboxamide] |  |  | 400 to 2000 | < 100 | 100 to 1000 |  |  | 
COc1cc(C)[nH]c(=O)c1CNC(=O)c1c(C)n(-c2cccc3c2CCCN3S(C)(=O)=O)c2ccccc12 [Compound 371, N-((4-methoxy-6-methyl-2-oxo-1,2-dihydropyridin-3-yl)methyl)-2-methyl-1-(1-(methylsulfonyl)-1,2,3,4-tetrahydroquinolin-5-yl)-1H-indole-3-carboxamide] | < 100 | < 100 |  |  |  |  |  | *(3.33 μM)
COc1cc(C)[nH]c(=O)c1CNC(=O)c1c(C)n(C(C)C2CCN(C)CC2)c2ccccc12 (single isomer, unassigned) [Compound 343, (R or S)-N-((4-methoxy-6-methyl-2-oxo-1,2-dihydropyridin-3-yl)methyl)-2-methyl-1-(1-(1-methylpiperidin-4-yl)ethyl)-1H-indole-3-carboxamide] |  |  | 400 to 2000 | < 100 | < 100 |  |  | 
